Tests used:
[1] = in terms of weight ratio; cited from earlier work
[2] = Dissolution time in 900 ml water (20° C.), 1-L elution tester, Japanese Pharmacopoeia Paddle method, 100 rpm; format: physicochemical
Procedure: A predetermined amount of the sample was introduced into 900 ml water (20° C.) in a 1-L elution tester (the Japanese Pharmacopoeia, Paddle method, 100 rpm) and its dissolution time was measured (end point was visually confirmed).
Specifically, 1 g of the sample taken from each mixture consisting of NM C-type crystals (average particle size (diameter) of about 100 μm) and ACE-K raw powder (average particle size of about 20 μm) at a predetermined ratio (ACE-K content (% by weight)) shown in Table 1 below, was weighed and measured for its dissolution time. For comparison, 1.00 g, 0.90 g, 0.80 g, 0.50 g, 0.10 g, and 0.03 g samples were taken from said NM crystals and their dissolution times were determined in the same manner.
The dissolution times of mixtures of NM and ACE-K were measured in the same manner as in Experimental Example 1 except that NM A-type crystals were used in place of NM C-type crystals.
The sample amount for each mixture and the amount of NM alone (NM A-type crystals) were the same as that in Example 1.
The same NM crystals as those in Experimental Example 1 were used as NM, and the same ACE-K powder (average particle size (diameter) of about 20 μm) as that in Experimental Example 1 was used as ACE-K, and the dissolution times thereof were determined in the same manner as in Experimental Example 1.
That is, 0.5 g each of both of them was weighed (1.0 g in total) and introduced simultaneously without being previously mixed, into the elution tester (separate addition). For reference, the dissolution time of 0.5 g NM C-type crystals alone (Experimental Example 1) is also shown together in the table.

[3] = Quality of sweetness compared to sucrose (early taste, later taste, astringent taste); settings: found by the present inventors
Text: It is reported that the sweetness strength or sweetening potency of the synthetic high-potency sweetener, NM, is about 10,000 times that of sucrose in terms of weight ratio (Japanese Patent Kohyou Publication JP-A-8-503206). […] Further, NM has a strong astringent taste. Accordingly, the balance of the quality of sweetness properties for NM is poor when compared to sucrose. Sucrose is generally regarded as the standard for evaluating the properties or characteristics of the quality of sweetness.

Compound: CC1=CC(=O)[N-]S(=O)(=O)O1.[K+] [ACE-K, Acesulfame K]
- Sweetness strength or sweetening potency [1]: about 200 times that of sucrose

Compound: COC(=O)[C@H](Cc1ccccc1)NC(=O)[C@H](CC(=O)O)NCCC(C)(C)C [NM A-type crystals, N-{N-(3,3-dimethylbutyl)-L-α-aspartyl}-L-phenylalanine 1-methyl ester, reference compound]
- Dissolution time ([2]; NM A-type crystals alone, 0.80 g in 900 ml water, 20° C.): 38 min

Compound: COC(=O)[C@H](Cc1ccccc1)NC(=O)[C@H](CC(=O)O)NCCC(C)(C)C [NM C-type crystals, N-{N-(3,3-dimethylbutyl)-L-α-aspartyl}-L-phenylalanine 1-methyl ester]
- Dissolution time ([2]; NM C-type crystals alone, 0.80 g in 900 ml water, 20° C.): 58 min

Compound: COC(=O)[C@H](Cc1ccccc1)NC(=O)[C@H](CC(=O)O)NCCC(C)(C)C [NM, N-{N-(3,3-dimethylbutyl)-L-α-aspartyl}-L-phenylalanine 1-methyl ester]
- Dissolution time ([2]; 0.51 g of NM alone (amount of equal sweetness to 1 g mixture containing 50% ACE-K)): about 60 minutes
- Early taste ([3]; compared to sucrose): extremely weak
- Later taste ([3]; compared to sucrose): extremely strong
- Astringent taste [3]: strong
- Sweetness strength or sweetening potency [1]: about 10,000 times that of sucrose
